# Results: US8168232B2, “Formulations and methods of using nitric oxide mimetics in cancer treatment” (priority 2000, dated 2012)
# Key:
# PROXY-1 mRNA = PROXY-1 mRNA levels in HTR-8/SVneo invasive trophoblast cells; assay type: cell-based, human; settings: 1% O2
# From the text: PROXY-1 mRNA levels were very low in cells cultured in 20% O2.
# uPAR protein = test: Western blot analysis of uPAR protein in MDA-MB-231 breast carcinoma cells; assay type: cell-based, human
# Description: Following incubations, the cells were lysed using a buffer containing 40 mM HEPES pH 7.2, 100 mM NaCl, 20% glycerol, 0.1 mM EDTA pH 8.0, 0.2% Triton X-100, 1 mM DTT, and 2 mM PMSF. The lysates were then subjected to homogenization, DNA shearing (10 times with a 25⅝-gauge needle), boiling (5 minutes) and centrifugation (15 minutes, 14000 g). The supernatant was collected and stored at −80° C. until use. The samples were subjected to SDS-polyacrylamide gel electrophoresis (PAGE) and the resolved proteins were transferred to an Immobilon-P membrane using a wet transfer apparatus (Bio-Rad Laboratories, Mississauga, ON). The membranes were blocked overnight at 4° C. in a solution containing 1% PBS, and 0.01% Tween20 (PBS-T) as well as 5% casein. The blots were subsequently incubated for 1.5 hours with the monoclonal anti-uPAR antibody [MoAb 3937], followed by six 5 minute washes with PBS-T. The membranes were then incubated with a horseradish peroxidase labeled goat anti-mouse IgG secondary antibody for 1.5 hours. Following six additional 5 minute washes with PBS-T, the antigen was detected by enhanced chemiluminescence and the blots were exposed onto Dupont Reflection NEF film.
# Following incubation, the cells were lysed using a buffer containing 40 mM HEPES pH 7.2, 100 mM NaCl, 20% glycerol, 0.1 mM EDTA pH 8.0, 0.2% Triton X-100, 1 mM dithiothreitol (DTT), and 2 mM phenylmethyl sulfonyl fluoride (PMSF). The lysates were then subjected to homogenization, DNA shearing (10 times with a 25⅝-gauge needle), boiling (5 minutes) and centrifugation (15 minutes at 14,000×g). The supernatant was collected and stored at −80° C. until use. The samples were subjected to SDS-polyacrylamide gel electrophoresis (PAGE) and the resolved proteins were transferred to an Immobilon-P membrane (Millipore Corp., Bedford, Mass.) using a wet transfer apparatus (BioRad Laboratories, Mississauga, ON). The membranes were blocked overnight at 4° C. in a solution containing 1% PBS, and 0.01% Tween 20 (PBS-T) as well as 5% dry milk powder. The blots were subsequently incubated for 1.5 hours with the monoclonal anti-uPAR (MoAb 3937; American Diagnostica Inc., Greenwich, Conn.), or a polyclonal soluble guanylate cyclase (sGC) antiserum (Cayman Chemical, Ann Arbor, Mich.) followed by six 5-minute washes with PBS-T. Subsequently, the uPAR membranes were incubated for 1 hour with a horseradish peroxidase labelled goat anti-mouse IgG secondary antibody (Bio-Rad, Hercules, Calif.) and the sGC membranes were incubated for 1 hour with a goat anti-rabbit IgG horseradish peroxidase conjugate (VECTOR Laboratories Inc., Burlingame, Calif.). Following six additional 5-minute washes with PBS-T, the antigen was detected by enhanced chemiluminescence (Amersham Canada Inc., Mississauga, ON) and the blots were exposed onto Dupont Reflection NEF film.
# [1] = system: HTR-8/SVneo invasive trophoblast cells; test: In vitro Matrigel invasion assay, HTR-8/SVneo; assay type: cell-based; settings: Homo sapiens, read-out: inhibition of invasiveness of hypoxic cells
# Description: The chambers consist of cell culture inserts, 6.5 mm in diameter and with a 8 μm pore size membrane. Each membrane was coated with 100 μL of a 1 mg/mL solution of Matrigel diluted in cold serum-free culture medium (EX-CELL 300), and allowed to dry in a laminar flow cabinet for approximately 12 hours. The Matrigel was then rehydrated by incubating it with 100 μL of serum-free medium for approximately 1 hour. After rehydration, cell suspensions containing 5.0×10^4 or 1.0×10^5 cells in 100 μL of medium, containing both serum and the nitric oxide treatments, were added to each well. Culture medium containing serum and the respective nitric oxide treatment were then added to each insert. The cells were incubated for 24 hours under either hypoxic (1% O2) or control (20% O2) conditions. Following incubation, the non-invading cells were removed from the upper surface of the membrane by wiping with a cotton swab. The cells on the lower surface of the membrane were fixed for 10 minutes with Carnoy's fixative (25% acetic acid, 75% methanol), and then stained for approximately 3 hours with a 1% toluidine blue, 1% sodium borate solution. […] Invading cells were then viewed under the microscope at 40× magnification and counted. The invasion index for each treatment was calculated by dividing the number of invading cells by the number of cells which invaded under standard conditions. […]
# [2] = system: Bl6F10 metastatic melanoma cells; test: In vivo experimental metastasis (lung colonization) model; parameters: species or system C57BL6 mice
# Description: C57BL6 mice were injected i.v. (tail vein) with a bolus of 5×10^4-10^5 Bl6F10 metastatic melanoma cells. Immediately after the tail vein injection, mice were randomly divided into groups of 15 and mice in each group were placed in plexiglass chambers (approximately 3 L) which were continuously flushed with gas mixtures of 20% O2:balance N2 and 10% O2:balance N2, respectively. […] After a 24 hour exposure to an atmosphere of either 20% O2 or 10% O2, mice were removed from the chambers and placed in regular cages kept at room air. Thirteen days later, mice were sacrificed by cervical dislocation, and lungs were removed and fixed in Bouin's fixative (Sigma). Metastatic nodules (many of which appeared black due to the presence of melanin) on the surface of the lungs were counted visually under a dissecting microscope. Data were expressed as the number of lung nodules per 10^4 cells injected and were analyzed using statistical tests for non-parametric values.
# Cells were then removed from plates with trypsin and 5×10^4 cells were injected i.v. (tail vein) into C57BL6 female mice. Some of the cells treated in vitro were plated onto tissue culture dishes to determine colony-forming ability using the protocol described below in the Section I.J.
# Following harvesting from culture plates, 5×10^4 cells were injected intravenously (tail vein injections) into 5-7 week old C57Bl/6 female mice. Cells were also plated in tissue culture plates to determine the effect of culture conditions on in vitro colony forming ability. Fourteen days after intravenous inoculation, mice were sacrificed and their lungs were removed and fixed in Bouin's fixative. Both melanotic and amelanotic metastatic colonies were counted under a dissecting microscope. Data were expressed as the number of lung nodules per 5×10^4 viable cells injected (as determined by in vitro colony-forming ability) and were analyzed using statistical tests for non-parametric values.
compound,measurement,setting,value
"O=[N+]([O-])OCC(CO[N+](=O)[O-])O[N+](=O)[O-] [GTN, glyceryl trinitrate]",PROXY-1 mRNA levels in hypoxic cells,PROXY-1 mRNA; 10^−7 M GTN,increased
same,PROXY-1 mRNA levels in hypoxic cells,PROXY-1 mRNA; 10^−11 M GTN,much lower
same,uPAR protein levels vs 20% O2 alone,"uPAR protein; combination of L-NMMA (0.5 mM) and GTN (0.1 nM), 20% O2",no significant increase
same,hypoxic upregulation of uPAR protein expression,"uPAR protein; single doses GTN 1 pM, 1 nM and 0.1 μM, 24 hours 0.5% oxygen",prevent the upregulation
same,inhibition at 0.1 µM,[1],56.2%
same,decrease of hypoxia-stimulated lung nodule formation,"[2]; cells pre-treated in vitro 12 h, 1% O2, 2×10^−11 M GTN",85%
same,reduction of extent of metastasis,"[2]; cells pre-treated in vitro 12 h, 20% oxygen, 2×10^−11 M GTN",more than 60%
same,attenuation of L-NMMA metastatic response,[2]; concomitant GTN (10^−10 M) and L-NMMA,60%
